Laboratory results reported in patent US12128035B2, “Activating pyruvate kinase R” (Novo Nordisk Health Care AG, priority 2021, dated 2024).

Test system: ATP blood levels
Assay: Phase 1 SAD/MAD: blood ATP (LC-MS/MS) in healthy volunteers
Format: in vivo, human
Conditions: for Median Percentage Change in ATP Levels / Mean Percentage Change in ATP Levels: HV 400 mg QD
Description: In this study, SAD/MAD cohorts are randomized (3 to 1) to receive Compound 1 or placebo (P). Compound 1 was evaluated first in 4 healthy SAD cohorts and 4 healthy MAD (14-day dosing period) cohorts. Based on the safety, and PK/PD profile from HS, Compound 1 is then evaluated in 1 SCD SAD cohort and 2 SCD MAD cohorts. Specifically, based on the safety and pharmacokinetic/pharmacodynamics (PK/PD) profile in healthy volunteer studies, Compound 1 is evaluated in patients (pts) with SCD, first in a single dose (SD or SAD) cohort and then in multiple-dose (MD or MAD) cohorts (14-day and 12-week). Safety assessments include AEs, vital signs, ECGs and laboratory parameters. PK/PD blood sampling was performed on Day 1 (SAD/MAD) and Day 14 (MAD) and up to 72 h after the last dose and at the end-of-study visit. PD parameters included 2,3-DPG, ATP, and p50 in all cohorts with additional PD studies (including oxygen scan) performed only in the SCD cohorts. PD parameters included 2,3-DPG, ATP, p50, RBC deformability with controlled deoxygenation and reoxygenation (Lorrca® oxygen scan) and varying osmolality (Lorrca® osmoscan)). To maintain study blind, pt identifiers were removed when needed.
In the MAD cohorts, the subjects' blood ATP levels were measured […] by a qualified LC-MS/MS method for the quantitation of ATP in blood. […] Table 20A reports the median percentage change in blood ATP levels, relative to baseline, measured over time after the first dose on days 1 and 14 in healthy volunteers who received daily doses of Compound 1 (100 mg BID, 200 mg BID, 300 mg BID, or 400 mg QD) or placebo for 14 days. Table 20B reports the mean percentage change in ATP blood levels, relative to baseline, measured over time after the first dose on days 1 and 14 in healthy volunteers who received daily doses of Compound 1 (100 mg BID, 200 mg BID, 300 mg BID, or 400 mg QD) for 14 days.
The following procedures are employed for the analysis of ATP and 2,3-DPG in human whole blood K2EDTA using a protein precipitation extraction procedure and analysis by LC-MS/MS.
The following procedures are used for sample extraction prior to analysis via LC-MS/MS. 15.0 μL of the calibration standards, quality controls, matrix blanks, and samples are aliquoted into a 96-well plate. 50.0 μL of the internal standard spiking solution is added to all samples on the plate, with the exception of the matrix blank samples; 50.0 μL of water is added to the matrix blank samples. Subsequently, 150 μL of water is added to all samples on the plate. The plate is then covered and agitated by vortex at high speed for ten minutes, after which 750 μL of methanol is added to all samples on the plate. The plate is covered and agitated by vortex for approximately 1 minute. The plate is then centrifuged at approximately 3500 RPM at approximately 4° C. for five minutes. After centrifugation, a liquid handler is used to transfer 50 μL of each sample to a new 96-well plate, and 200 μL of acetonitrile is added to all samples on the plate. The newly prepared plate is covered and agitated by vortex for approximately 1 minute. The plate is then centrifuged at approximately 3500 RPM at approximately 4° C. for 2 minutes.

[1] = Day 1, 24 h after first daily dose
[2] = Day 14, 0 h after first daily dose
[3] = Day 14, 6 h after first daily dose
[4] = Day 14, 8 h after first daily dose
[5] = Day 14, 12 h after first daily dose
[6] = Day 14, 16 h after first daily dose
[7] = Day 14, 24 h after first daily dose
[8] = Day 14, 48 h after first daily dose
[9] = Day 14, 72 h after first daily dose
[10] = HV single 200 mg, 0 h after dose
[11] = HV single 200 mg, 6 h after dose
[12] = HV single 200 mg, 8 h after dose
[13] = HV single 200 mg, 12 h after dose
[14] = HV single 200 mg, 16 h after dose
[15] = HV single 200 mg, 24 h after dose
[16] = HV single 200 mg, 36 h after dose
[17] = HV single 200 mg, 48 h after dose
[18] = HV single 200 mg, 72 h after dose
[19] = HV single 400 mg, 0 h after dose
[20] = HV single 400 mg, 6 h after dose
[21] = HV single 400 mg, 8 h after dose
[22] = HV single 400 mg, 12 h after dose
[23] = HV single 400 mg, 16 h after dose
[24] = HV single 400 mg, 24 h after dose
[25] = HV single 400 mg, 36 h after dose
[26] = HV single 400 mg, 48 h after dose
[27] = HV single 400 mg, 72 h after dose
[28] = HV single 700 mg, 0 h after dose
[29] = HV single 700 mg, 6 h after dose
[30] = HV single 700 mg, 8 h after dose
[31] = HV single 700 mg, 12 h after dose
[32] = HV single 700 mg, 16 h after dose
[33] = HV single 700 mg, 24 h after dose
[34] = HV single 700 mg, 36 h after dose
[35] = HV single 700 mg, 48 h after dose
[36] = HV single 700 mg, 72 h after dose
[37] = HV single 1000 mg, 0 h after dose
[38] = HV single 1000 mg, 6 h after dose
[39] = HV single 1000 mg, 8 h after dose
[40] = HV single 1000 mg, 12 h after dose
[41] = HV single 1000 mg, 16 h after dose
[42] = HV single 1000 mg, 24 h after dose
[43] = HV single 1000 mg, 36 h after dose
[44] = HV single 1000 mg, 48 h after dose
[45] = HV single 1000 mg, 72 h after dose

## O=C([C@H](CO)c1ccccc1)N1CC2=C(C1)CN(S(=O)(=O)c1cnc3c(c1)OCCO3)C2 (single isomer, unassigned) [Compound 1]
Day 1, 16 h after first daily dose
  Median Percentage Change in ATP Levels: −1.8%
[1]
  Mean Percentage Change in ATP Levels: 1.9%
  Median Percentage Change in ATP Levels: 0.0%
[2]
  Mean Percentage Change in ATP Levels: 54%
  Median Percentage Change in ATP Levels: 52%
[3]
  Mean Percentage Change in ATP Levels: 48%
  Median Percentage Change in ATP Levels: 52%
[4]
  Mean Percentage Change in ATP Levels: 51%
  Median Percentage Change in ATP Levels: 52%
[5]
  Mean Percentage Change in ATP Levels: 50%
  Median Percentage Change in ATP Levels: 56%
[6]
  Mean Percentage Change in ATP Levels: 51%
  Median Percentage Change in ATP Levels: 51%
[7]
  Mean Percentage Change in ATP Levels: 57%
  Median Percentage Change in ATP Levels: 52%
[8]
  Mean Percentage Change in ATP Levels: 60%
  Median Percentage Change in ATP Levels: 61%
[9]
  Mean Percentage Change in ATP Levels: 51%
  Median Percentage Change in ATP Levels: 54%
HV MAD, all doses and timepoints (N = 36)
  Mean Maximum Percent Change from Baseline, ATP: 68.5%
HV SAD, all doses and timepoints (N = 24)
  Mean Maximum Percent Change from Baseline, ATP: 24.4%
[10]
  mean percentage change in ATP blood levels: 0%
  median percentage change in ATP blood levels: 0%
[11]
  mean percentage change in ATP blood levels: 0.7%
  median percentage change in ATP blood levels: −4.5%
[12]
  mean percentage change in ATP blood levels: −2.1%
  median percentage change in ATP blood levels: −1.7%
[13]
  mean percentage change in ATP blood levels: 2.0%
  median percentage change in ATP blood levels: 1.7%
[14]
  mean percentage change in ATP blood levels: −6.9%
  median percentage change in ATP blood levels: −6.6%
[15]
  mean percentage change in ATP blood levels: 3.4%
  median percentage change in ATP blood levels: 4.7%
[16]
  mean percentage change in ATP blood levels: 6.2%
  median percentage change in ATP blood levels: 4.1%
[17]
  mean percentage change in ATP blood levels: 2.0%
  median percentage change in ATP blood levels: −2.4%
[18]
  mean percentage change in ATP blood levels: 12%
  median percentage change in ATP blood levels: 11%
[19]
  mean percentage change in ATP blood levels: 0%
  median percentage change in ATP blood levels: 0%
[20]
  mean percentage change in ATP blood levels: 2.2%
  median percentage change in ATP blood levels: 4.1%
[21]
  mean percentage change in ATP blood levels: −2.5%
  median percentage change in ATP blood levels: −8.8%
[22]
  mean percentage change in ATP blood levels: 5.6%
  median percentage change in ATP blood levels: 7.2%
[23]
  mean percentage change in ATP blood levels: 5.6%
  median percentage change in ATP blood levels: 4.5%
[24]
  mean percentage change in ATP blood levels: 15%
  median percentage change in ATP blood levels: 13%
[25]
  mean percentage change in ATP blood levels: 18%
  median percentage change in ATP blood levels: 16%
[26]
  mean percentage change in ATP blood levels: 14%
  median percentage change in ATP blood levels: 14%
[27]
  mean percentage change in ATP blood levels: 14%
  median percentage change in ATP blood levels: 18%
[28]
  mean percentage change in ATP blood levels: 0%
  median percentage change in ATP blood levels: 0%
[29]
  mean percentage change in ATP blood levels: −2.8%
  median percentage change in ATP blood levels: −2.6%
[30]
  mean percentage change in ATP blood levels: −2.9%
  median percentage change in ATP blood levels: −1.6%
[31]
  mean percentage change in ATP blood levels: −5.5%
  median percentage change in ATP blood levels: −5.4%
[32]
  mean percentage change in ATP blood levels: −1.3%
  median percentage change in ATP blood levels: −2.4%
[33]
  mean percentage change in ATP blood levels: 13%
  median percentage change in ATP blood levels: 12%
[34]
  mean percentage change in ATP blood levels: 4.5%
  median percentage change in ATP blood levels: 3.6%
[35]
  mean percentage change in ATP blood levels: 2.5%
  median percentage change in ATP blood levels: 0%
[36]
  mean percentage change in ATP blood levels: 10%
  median percentage change in ATP blood levels: 5.1%
[37]
  mean percentage change in ATP blood levels: 0%
  median percentage change in ATP blood levels: 0%
[38]
  mean percentage change in ATP blood levels: −1.7%
  median percentage change in ATP blood levels: 5.1%
[39]
  mean percentage change in ATP blood levels: 4.0%
  median percentage change in ATP blood levels: 3.1%
[40]
  mean percentage change in ATP blood levels: 2.9%
  median percentage change in ATP blood levels: 7.3%
[41]
  mean percentage change in ATP blood levels: 6.9%
  median percentage change in ATP blood levels: 2.4%
[42]
  mean percentage change in ATP blood levels: 12%
  median percentage change in ATP blood levels: 14%
[43]
  mean percentage change in ATP blood levels: 13%
  median percentage change in ATP blood levels: 16%
[44]
  mean percentage change in ATP blood levels: 14%
  median percentage change in ATP blood levels: 10%
[45]
  mean percentage change in ATP blood levels: 22%
  median percentage change in ATP blood levels: 20%
HV single 200, 400, 700 or 1000 mg
  lag of maximum increase in blood ATP behind maximum plasma concentration: at least 24 hours
